One assay concerns MCF7. The experiment in a line: Cell Death Detection ELISA PLUS apoptosis assay. Format: cell-based, Human. Here is the method: (§1) To determine the induction of apoptosis, the Cell Death Detection ELISA^PLUS Assay (Roche Cat. No. 11774425001), which determines the degree of cytoplasmic mono- and oligonucleosomes, was employed as described by the manufacturer. […] Cells were then concentrated by centrifugation at 200 g for 10 min at room temperature and the supernatant was discarded. Cells were lysed, and cytoplasmic fractions containing fragmented DNA were transferred to streptavidin-coated microtiter plates preincubated with a biotinylated monoclonal anti-histone antibody. The amount of fragmented nucleosomes bound to anti-histone antibody was evaluated by peroxidase-conjugated monoclonal antibody using ABTS (2,2-azino-di[3-ethylbenzthiazoline sulfonate-6-diammonium salt]) as a substrate, and read in a microplate reader at 405 nm. Non-treated cells were employed as controls.

The next assay has as its system MDA-MBA-468. The assay is described as follows: Cell Death Detection ELISA PLUS apoptosis assay. Format: cell-based, Human. Conditions: MDA-MBA-468, 48 hours post-AF treatment, 100 nM AF per legend FIG. 2A. Here is the method: as §1
The test system of the next assay is T47D. The assay is described as follows: Cell Death Detection ELISA PLUS apoptosis assay. Format: cell-based, Human. Here is the method:
as §1

The test system of assay [1] is gamma-H2AX in MDA-MBA-231. The experiment in a line: Western blot analysis for phosphorylated H2AX. As to conditions: MDA-MBA-231, AF for 24 hrs, FIG. 2B. Format: cell-based, Human. Here is the method: (§2) Western blot analysis for phosphorylated H2AX (γ-H2AX) was performed by first growing cells to between 50% and 80% confluence and treating them with concentrations of AF for 24 hrs, according to the concentration at which 50% of the proliferation was inhibited (IC50). Cells were collected and centrifuged at 1,000×g for 15 minutes at 4° C. Histones were released by the method described by Meng et al. (Cancer Res, 65(12):5337-43 (2005)). Briefly, pellets were washed twice in PBS, homogenized in 0.2 mol/L H2SO4, and centrifuged at 13,000×g. The supernatant was removed and 0.25 volume of 100% (w/v) trichloroacetic acid was added to precipitate the histones. Samples were then centrifuged again at 13,000×g for 15 mins at 4° C. The supernatant was removed and the remaining pellet was suspended in 100% ethanol overnight. A final centrifugation step was performed at 13,000×g for 15 mins at 4° C. The solute was then dissolved in nuclease-free water. Protein concentration was determined using the Bio-Rad Protein Assay (Bio-Rad, CA). 30 μg of protein was resolved on 4-20% Tris-glycine precast gels (Invitrogen). Proteins were transferred onto a PVDF membrane (Immobilon-P, Millipore) and then blocked with 5% milk in TBST (0.1% Tween-20 in 1× Tris-buffered saline—pH 7.4) for 1 hr. […]

For assay [2], the system named is gamma-H2AX in MDA-MBA-468. The experiment in a line: Western blot analysis for phosphorylated H2AX. Format: cell-based, Human. Conditions: MDA-MBA-468, AF for 24 hrs, FIG. 2B. As to the method:
as §2

For a further assay, the system named is caspases 3/7 in MCF7. The experiment in a line: Caspase Glo-3/7 Assay. Format: cell-based, Human. Conditions: MCF7, relative to vehicle treated cells, FIG. 2C. As to the method: (§3) The Caspase Glo-3/7 Assay (Promega) was used to measure the combined activities of caspases-3 and -7. In brief, cells were seeded in a white-walled 96-well plate (Nunc) at a density of 2,000 cells/well and allowed to attach overnight. AF was added the following day in final concentrations of 0.1 nM to 100 μM in replicas of 8. Caspase activity was measured 5 days later by adding the Caspase Glo-3/7 reagent to the plate and incubating for another 2 hours. Caspase cleavage results in the release a substrate for luciferase that was measured using a LumiCount luminometer (Packard). Caspase activity levels were normalized to the amount of viable cells, determined by the CellTiter-Glo Luminescent Cell Viability Assay (Promega) performed in parallel to the caspase assay. Data analysis to obtain the mean and standard error as well as graphing employed Excel® (Microsoft Corporation).

Assay [3] deals with caspases 3/7 in MDA-MB-231. The assay is described as follows: Caspase Glo-3/7 Assay. Format: cell-based, Human. Conditions: MDA-MB-231, relative to vehicle treated cells, FIG. 2C. Here is the method: as §3
Assay [4] concerns caspases 3/7 in MDA-MBA-468. The experiment in a line: Caspase Glo-3/7 Assay. Format: cell-based, Human. Conditions: MDA-MBA-468, relative to vehicle treated cells, FIG. 2C. Here is the method:
as §3

For another assay, the system named is caspases 3/7 in T47D. The assay is described as follows: Caspase Glo-3/7 Assay. Format: cell-based, Human. As to conditions: relative to vehicle treated cells, FIG. 2C. As to the method: as §3
Another assay concerns A496. Conditions: A496 renal cell line, NIH dose response data; cited from earlier work.
In a further assay the test system is CAKi1. As to conditions: CAKi1 renal cell line, NIH dose response data; cited from earlier work.
A further assay relates to TK10. As to conditions: TK10 renal cell line, NIH dose response data; cited from earlier work.
The subject of a further assay is U251. As to conditions: U251 CNS cancer cell line, NIH dose response data; cited from earlier work.
The subject of the next assay is K562. Conditions: K562 leukemia cell line, NIH dose response data; cited from earlier work.

In the case of `Cc1c(F)c(N)c2c(=O)cc(-c3ccc(N)c(F)c3)oc2c1F` [AF, 5-amino-2-(4-amino-3-fluorophenyl)-6,8-difluoro-7-methylchromen-4-one], the “increase (cytoplasmic nucleosomes; printed as increase in inhibition of cell proliferation)” value with MCF7 (1 μM AF, MCF7, FIG. 2A) was more than 4.5 fold; with T47D (1 μM AF, FIG. 2A) it was more than 4.5 fold. Besides, the induction of apoptosis result is reported as “prominent induction of apoptosis” with MCF7 (MCF7, 48 hours post-AF treatment, 100 nM AF per legend FIG. 2A); “prominent induction of apoptosis” in the assay with MDA-MBA-468; “prominent induction of apoptosis” with T47D (48 hours post-AF treatment, 100 nM AF per legend FIG. 2A). Also, the entries for the “presence of gamma-H2AX (double stranded DNA breaks)” value in assay [1] and in assay [2] were “not observed at all” and “observed”, respectively. The “induction of caspases 3/7 (combined activity)” value in the assay on caspases 3/7 in MCF7 is “not activated”; in [4], “marked induction”; with caspases 3/7 in T47D, “marked induction”. Moreover, the “Caspases 3 and 7 activity” value in assay [3] is recorded as “do not”. For the same molecule, the AF sensitivity result in the assay on A496 is on record as “AF sensitive”; in the assay on CAKi1 it was “AF sensitive”; with TK10, “AF sensitive”; in the assay with U251 it was “some degree of sensitivity”; in the assay with K562 it was “AF sensitive”.
